A short description of this series: UV absorbing power (E1% 1 cm). Type of series: physicochemical. The following applies: at the λmax printed in Table 1 (290 nm or 305 nm). The source says: Fatty acids of Tung seed oil have good UV absorbing power as is evident from its conjugated system and from its E1% 1 cm of 1600 at 270 nm and 360 at 290 nm. These UV absorbing fatty acids can not only protect the ingredients of the formulations but also the skin and hair from the ravages of solar radiation when the formulations are applied. […] UV B radiation of solar spectrum is the most damaging since it causes skin cancer.
Both homosalate and Octyl salicylates are popular sunscreen molecules all over the world.

On to `CC1CC(OC(=O)c2ccccc2O)CC(C)(C)C1` (stereo not shown) [Homosalate (118-56-9), Homosalate], for which the E1 % turned out to be 180.

For the origin of these results see patent US12109283B2, “Safe and ecofriendly persistent sanitizing gel for topical application” (GALAXY SURFACTANTS LTD., priority 2021, dated 2024).
